How the values were obtained:
B16 [1] = assay: Inhibition of melanin production in mouse B16 cells at 100 uM after 48 hrs by spectrophotometry relative to control; type: functional; settings: B16, 48 h
B16 [2] = assay: Inhibition of melanin production in mouse B16 cells at 0.1 uM after 48 hrs by spectrophotometry relative to control; type: functional; settings: B16, 48 h
[3] = Cytotoxicity against mouse B16 cells assessed as viability at 0.1 uM after 48 hrs by viacount reagent staining technique relative to control; type: cell-based; settings: read-out: Activity

Row | SMILES | inhibition at 100 µM (B16 [1]) | inhibition at 0.1 µM (B16 [2]) | viability at 48 h, 0.1 µM [3]
1 | OC[C@H]1O[C@@H](Oc2ccc(O)cc2)[C@H](O)[C@@H](O)[C@@H]1O [ARBUTIN] | 33% |  | 
2 | C=C(C)[C@@]12OC3(/C=C/CCCCC)O[C@@H]1[C@@H]1[C@@H]4O[C@]4(CO)[C@@H](O)[C@]4(O)C(=O)C(C)=C[C@H]4[C@@]1(O3)[C@H](C)[C@H]2OC(=O)/C=C/c1ccccc1 [HIRSEIN A] |  | 37% | 99.3%
3 | C=C(C)[C@@]12OC3(CCCCCCCCC)O[C@@H]1[C@@H]1[C@@H]4O[C@]4(CO)[C@@H](O)[C@]4(O)C(=O)C(C)=C[C@H]4[C@@]1(O3)[C@H](C)[C@H]2OC(=O)/C=C/c1ccc(O)cc1 [HIRSEIN B] |  | 26% | 97.5%

— ChEMBL document CHEMBL1152346, “Hirseins A and B, daphnane diterpenoids from Thymelaea hirsuta that inhibit melanogenesis in B16 melanoma cells” (J Nat Prod, 2009)
